# Assay results: US8921376B2, “Pyrrolopyridines useful as inhibitors of protein kinase” (Vertex Pharmaceuticals Incorporated, priority 2005, dated 2014)
# Assays:
# Type in all cases: biochemical
# [1] = biological target: ROCK I (Homo sapiens, UniProt Q13464); assay: ROCK-I inhibition assay (radioactive enzyme assay, MBP substrate)
# Method: Compounds were screened for their ability to inhibit ROCK using a standard radioactive enzyme assay. Assays were carried out in a solution containing 100 mM HEPES (pH 7.5), 10 mM MgCl2, 25 mM NaCl, 2 mM DTT, and 1.5% DMSO. Final substrate concentrations in the assay were 13 μM [γ-^33P] ATP (25 mCi ^33P ATP/mmol ATP, Perkin Elmer, Cambridge, Mass./Sigma Chemicals, St Louis, Mo.) and 27 μM Myelin Basic Protein (MBP). Final enzyme concentration in the assay was 5 nM ROCK. Assays were carried out at room temperature. 1.5 μl of DMSO stock containing serial dilutions of the compound of the present invention (concentrations ranging from 10 μM to 2.6 nM) was placed in a 96 well plate. 50 μl of Solution 1 (100 mM HEPES (pH 7.5), 10 mM MgCl2, […]) was added to the plate. The reaction was initiated by addition of 50 μl of Solution 2 (100 mM HEPES (pH 7.5), 10 mM MgCl2, 4 mM DTT, […] and 10 nM ROCK). After 2 hours the reaction was quenched with 50 μL of 30% trichloroacetic acid (TCA, Fisher) containing 9 mM ATP. Transfer of 140 μL of the quenched reaction to a glass fiber filter plate (Corning, Cat. No. 3511) was followed by washing 3 times with 5% TCA. 50 μl of Optima Gold scintillation fluid (Perkin Elmer) was added and the plates were counted on a Top Count (Perkin Elmer). After removing mean background values for all of the data points the data was fit using Prism software to obtain a Ki(app).
# [2] = biological target: T1, JAK3 (Homo sapiens, UniProt P52333); assay: JAK3 inhibition assay (33P incorporation into poly(Glu)4Tyr)
# T1 sequence (P52333 1-1124): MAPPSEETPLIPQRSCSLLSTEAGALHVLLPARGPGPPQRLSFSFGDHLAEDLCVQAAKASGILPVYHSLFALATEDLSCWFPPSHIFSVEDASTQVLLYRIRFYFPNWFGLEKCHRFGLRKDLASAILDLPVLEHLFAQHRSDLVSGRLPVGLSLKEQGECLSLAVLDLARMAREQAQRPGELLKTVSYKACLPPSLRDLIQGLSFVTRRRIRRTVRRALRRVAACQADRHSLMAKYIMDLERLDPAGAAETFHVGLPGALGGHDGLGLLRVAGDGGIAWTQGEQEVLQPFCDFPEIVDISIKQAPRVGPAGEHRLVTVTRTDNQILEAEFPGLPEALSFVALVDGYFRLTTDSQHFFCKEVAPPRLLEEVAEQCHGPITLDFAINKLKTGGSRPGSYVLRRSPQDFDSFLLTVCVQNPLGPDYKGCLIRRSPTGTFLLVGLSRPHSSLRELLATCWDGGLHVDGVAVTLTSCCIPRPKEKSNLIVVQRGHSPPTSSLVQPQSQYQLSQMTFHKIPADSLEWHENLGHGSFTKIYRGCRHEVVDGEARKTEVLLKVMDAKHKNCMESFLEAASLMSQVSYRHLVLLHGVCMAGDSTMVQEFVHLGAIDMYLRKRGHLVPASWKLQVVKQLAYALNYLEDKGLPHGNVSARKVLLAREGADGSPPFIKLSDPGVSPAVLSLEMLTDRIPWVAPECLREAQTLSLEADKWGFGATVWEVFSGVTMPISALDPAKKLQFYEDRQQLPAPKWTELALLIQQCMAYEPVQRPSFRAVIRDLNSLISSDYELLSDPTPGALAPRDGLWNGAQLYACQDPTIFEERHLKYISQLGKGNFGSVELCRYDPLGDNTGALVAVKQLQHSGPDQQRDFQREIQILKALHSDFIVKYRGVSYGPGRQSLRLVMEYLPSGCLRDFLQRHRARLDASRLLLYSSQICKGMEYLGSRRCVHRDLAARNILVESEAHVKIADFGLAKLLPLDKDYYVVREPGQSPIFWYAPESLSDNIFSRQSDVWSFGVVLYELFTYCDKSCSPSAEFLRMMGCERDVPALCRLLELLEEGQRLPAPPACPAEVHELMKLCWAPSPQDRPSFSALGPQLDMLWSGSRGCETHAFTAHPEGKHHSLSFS
# Method: (§1) Compounds were screened for their ability to inhibit JAK using the assay shown below. Reactions were carried out in a kinase buffer containing 100 mM HEPES (pH 7.4), 1 mM DTT, 10 mM MgCl2, 25 mM NaCl, and 0.01% BSA.
# (§2) Substrate concentrations in the assay were 5 μM ATP (200 μCi/μmole ATP) and 1 μM poly(Glu)4Tyr. Reactions were carried out at 25° C. and 1 nM JAK3.
# (§3) To each well of a 96 well polycarbonate plate was added 1.5 μl of a candidate JAK3 inhibitor along with 50/1 of kinase buffer containing 2 μM poly(Glu)4Tyr and 10 μM ATP. This was then mixed and 50 μl of kinase buffer containing 2 nM JAK3 enzyme was added to start the reaction. After 20 minutes at room temperature (25 C), the reaction was stopped with 50 μl of 20% trichloroacetic acid (TCA) that also contained 0.4 mM ATP. The entire contents of each well were then transferred to a 96 well glass fiber filter plate using a TomTek Cell Harvester. After washing, 60 μl of scintillation fluid was added and ^33P incorporation detected on a Perkin Elmer TopCount.
# [3] = biological target: JAK2 (Homo sapiens, UniProt O60674); assay: JAK2 inhibition assay (as Example 3 with JAK-2 enzyme)
# Chain of JAK2 (O60674 whole entry): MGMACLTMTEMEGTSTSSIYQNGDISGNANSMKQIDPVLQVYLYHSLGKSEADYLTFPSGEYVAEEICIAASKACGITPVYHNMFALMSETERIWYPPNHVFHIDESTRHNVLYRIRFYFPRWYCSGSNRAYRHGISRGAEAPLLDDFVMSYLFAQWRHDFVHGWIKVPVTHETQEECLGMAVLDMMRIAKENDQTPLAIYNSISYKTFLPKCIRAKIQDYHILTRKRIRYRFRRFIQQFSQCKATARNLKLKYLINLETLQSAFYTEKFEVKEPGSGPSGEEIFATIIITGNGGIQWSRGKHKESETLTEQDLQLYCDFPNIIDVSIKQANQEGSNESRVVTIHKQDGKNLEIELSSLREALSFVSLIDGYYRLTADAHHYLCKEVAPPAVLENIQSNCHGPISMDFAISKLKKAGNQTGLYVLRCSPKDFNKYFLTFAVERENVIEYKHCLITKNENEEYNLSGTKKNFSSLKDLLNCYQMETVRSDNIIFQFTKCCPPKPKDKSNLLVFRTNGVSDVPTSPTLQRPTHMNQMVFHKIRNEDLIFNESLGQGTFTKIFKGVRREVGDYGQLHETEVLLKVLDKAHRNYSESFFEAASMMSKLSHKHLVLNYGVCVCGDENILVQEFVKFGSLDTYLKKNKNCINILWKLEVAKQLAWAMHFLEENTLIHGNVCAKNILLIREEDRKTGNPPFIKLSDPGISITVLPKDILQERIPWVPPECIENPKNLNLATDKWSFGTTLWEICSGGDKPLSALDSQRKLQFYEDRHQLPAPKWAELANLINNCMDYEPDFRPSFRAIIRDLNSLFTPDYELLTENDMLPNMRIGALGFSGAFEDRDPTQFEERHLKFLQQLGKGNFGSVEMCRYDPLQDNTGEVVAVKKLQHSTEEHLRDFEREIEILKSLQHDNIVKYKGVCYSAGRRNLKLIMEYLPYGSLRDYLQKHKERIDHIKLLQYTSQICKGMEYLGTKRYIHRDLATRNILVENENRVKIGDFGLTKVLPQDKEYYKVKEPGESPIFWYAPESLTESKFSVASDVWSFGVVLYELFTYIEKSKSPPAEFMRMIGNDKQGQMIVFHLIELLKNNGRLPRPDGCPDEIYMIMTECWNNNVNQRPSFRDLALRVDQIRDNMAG
# Method: as §1, §2, §3
# The assays were as described above in Example 3 except that JAK-2 enzyme was used, the final poly(Glu)4Tyr concentration was 15 μM, and final ATP concentration was 12 μM.
# [4] = Table 6, enzyme inhibition data (Ki)
# [5] = enzyme inhibition, Ki(app), Table 5
# Chain of ROCK I (Q13464 whole entry): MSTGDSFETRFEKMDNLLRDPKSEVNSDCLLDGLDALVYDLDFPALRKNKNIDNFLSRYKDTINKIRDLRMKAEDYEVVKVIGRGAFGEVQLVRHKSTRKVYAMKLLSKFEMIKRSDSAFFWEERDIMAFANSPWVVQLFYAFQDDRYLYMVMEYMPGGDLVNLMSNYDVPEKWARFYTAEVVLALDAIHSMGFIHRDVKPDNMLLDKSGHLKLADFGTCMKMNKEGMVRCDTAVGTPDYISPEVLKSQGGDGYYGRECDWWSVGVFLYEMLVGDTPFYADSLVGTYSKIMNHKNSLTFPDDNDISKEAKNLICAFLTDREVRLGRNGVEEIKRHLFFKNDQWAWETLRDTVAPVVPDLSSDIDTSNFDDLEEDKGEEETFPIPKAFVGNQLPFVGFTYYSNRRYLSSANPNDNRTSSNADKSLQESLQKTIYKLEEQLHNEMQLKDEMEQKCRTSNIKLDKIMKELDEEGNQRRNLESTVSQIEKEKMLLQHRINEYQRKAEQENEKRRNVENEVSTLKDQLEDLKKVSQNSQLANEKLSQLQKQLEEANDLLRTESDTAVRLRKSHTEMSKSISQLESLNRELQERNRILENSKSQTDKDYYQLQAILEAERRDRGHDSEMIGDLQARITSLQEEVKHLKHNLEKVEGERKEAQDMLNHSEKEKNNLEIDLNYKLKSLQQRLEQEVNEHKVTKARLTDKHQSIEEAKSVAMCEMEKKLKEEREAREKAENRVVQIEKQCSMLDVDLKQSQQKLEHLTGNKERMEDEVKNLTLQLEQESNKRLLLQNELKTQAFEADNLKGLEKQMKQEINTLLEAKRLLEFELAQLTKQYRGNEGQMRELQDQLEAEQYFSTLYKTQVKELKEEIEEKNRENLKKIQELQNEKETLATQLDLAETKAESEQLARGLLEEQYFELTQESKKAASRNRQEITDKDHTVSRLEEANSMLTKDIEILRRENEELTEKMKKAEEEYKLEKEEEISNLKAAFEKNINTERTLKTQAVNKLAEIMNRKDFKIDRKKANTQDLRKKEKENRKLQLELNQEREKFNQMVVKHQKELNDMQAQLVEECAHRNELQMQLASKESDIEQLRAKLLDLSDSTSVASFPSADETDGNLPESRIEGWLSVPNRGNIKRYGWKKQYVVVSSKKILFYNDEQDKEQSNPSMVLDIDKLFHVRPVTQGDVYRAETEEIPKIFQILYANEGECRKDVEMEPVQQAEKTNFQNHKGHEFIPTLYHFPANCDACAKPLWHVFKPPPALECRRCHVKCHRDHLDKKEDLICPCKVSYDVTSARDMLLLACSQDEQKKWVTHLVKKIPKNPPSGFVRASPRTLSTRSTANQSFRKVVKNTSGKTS
Compound,"Ki [1, 4] [nM]","Ki [2, 4] [nM]","Ki [3, 4] [nM]","Ki [1, 5] [nM]","Ki ([2]; enzyme inhibition, Table 5) [nM]","Ki ([3]; enzyme inhibition, Table 5) [nM]"
O=C(c1cc(-c2c(F)cnc3[nH]ccc23)c[nH]1)N(CCC(F)(F)F)Cc1ccccc1 [compound 389],500 to 5000,< 500,< 500,–,–,–
C#CCOC(=O)N1CC[C@@H](Nc2c(Cl)cnc3[nH]ccc23)C1 [compound 169],500 to 5000,< 500,< 500,–,–,–
CN(CCC#N)C(=O)c1cc(-c2c(F)cnc3[nH]ccc23)c[nH]1 [compound 386],500 to 5000,< 500,< 500,–,–,–
"c1cc(-c2ccnc3[nH]ccc23)[nH]n1 [compound 106, 4-(2H-Pyrazol-3-yl)-1H-pyrrolo[2,3-b]pyridine]",–,–,–,< 500,< 500,500 to 5000
"c1cc(-c2ccnc3[nH]ccc23)c2ccoc2c1 [compound 115, 4-Benzofuran-4-yl-1H-pyrrolo[2,3-b]pyridine]",–,–,–,< 500,< 500,< 500
"CC(=O)Nc1cccc(-c2ccnc3[nH]ccc23)n1 [compound 98, N-(6-(1H-pyrrolo[2,3-b]pyridine-4-yl)pyridin-2-yl)acetamine]",–,–,–,500 to 5000,500 to 5000,< 500
C#CCOC(=O)N1CC[C@H](Nc2c(Cl)cnc3[nH]ccc23)C1 [compound 165],> 4000,< 500,< 500,–,–,–
O=C(NCC(F)(F)F)[C@H]1CCCN1c1nc(-c2ccnc3[nH]ccc23)ncc1F [compound 198],> 4000,500 to 5000,500 to 5000,–,–,–
CC(=O)N1CCCN(c2cccc(-c3ccnc4[nH]ccc34)n2)CC1 [compound 18],–,–,–,500 to 5000,500 to 5000,< 500
N#CC1CCCN1C(=O)c1cc(-c2c(Cl)cnc3[nH]ccc23)c[nH]1 (stereo not drawn) [compound 357],500 to 5000,< 500,< 500,–,–,–
COc1cccc(Cl)c1-c1ccnc2[nH]ccc12 [compound 245],> 4000,> 5000,> 5000,–,–,–
"Clc1cnc2[nH]ccc2c1-c1ccsc1 [compound 82, 5-Chloro-4-(thiophen-3-yl)-1H-pyrrolo[2,3b]pyridine]",–,–,–,500 to 5000,< 500,< 500
"Clc1cnc2[nH]ccc2c1C1=CCCC1 [compound 28, 5-Chloro-4-cyclopentenyl-1H-pyrrolo[2,3b]pyridine]",–,–,–,500 to 5000,< 500,< 500
CN(C)CCCN(C)C(=O)c1cc(-c2c(Cl)cnc3[nH]ccc23)c[nH]1 [compound 349],> 4000,500 to 5000,500 to 5000,–,–,–

# Results, then the compound that gave them:
"Ki [1, 4] [nM]","Ki [2, 4] [nM]","Ki [3, 4] [nM]","Ki [1, 5] [nM]","Ki ([2]; enzyme inhibition, Table 5) [nM]","Ki ([3]; enzyme inhibition, Table 5) [nM]",Compound
500 to 5000,< 500,< 500,–,–,–,O=C(CC(F)(F)F)N1CC[C@H](Nc2c(Cl)cnc3[nH]ccc23)C1 [compound 187]
< 500,< 500,< 500,–,–,–,C=CCN(C(=O)c1csc(-c2ccnc3[nH]ccc23)n1)[C@@H](C)c1ccccc1 [compound 408]
< 500,< 500,< 500,–,–,–,N#CCCN(Cc1ccccc1)C(=O)c1cc(-c2ccnc3[nH]ccc23)c[nH]1 [compound 312]
> 4000,500 to 5000,500 to 5000,–,–,–,Nc1nc(-c2ccnc3[nH]ccc23)ncc1F [compound 203]
–,–,–,500 to 5000,500 to 5000,> 5000,C[C@H](Nc1nc(-c2ccnc3[nH]ccc23)nc2ccccc12)C(=O)NCC(F)(F)F [compound 134]
–,–,–,500 to 5000,< 500,500 to 5000,"C[C@H](Nc1cccc(-c2ccnc3[nH]ccc23)n1)C(=O)NCC(F)(F)F [compound 122, (S)-2-(6-(1H-pyrrolo[2,3b]pyridin-4-yl)pyridin-2-ylamino)-N-(2,2,2-trifluoroethyl)propanamide]"
–,–,–,500 to 5000,500 to 5000,500 to 5000,CC(=O)N1CC=C(c2ccnc3[nH]ccc23)CC1 [compound 64]
> 4000,< 500,500 to 5000,–,–,–,O=C(NCC(F)(F)F)[C@H]1CCCCN1c1ccnc(-c2ccnc3[nH]ccc23)n1 [compound 215]
> 4000,< 500,< 500,–,–,–,NC(=O)C1CCCN1C(=O)c1cc(-c2c(Cl)cnc3[nH]ccc23)c[nH]1 (stereo not drawn) [compound 352]
< 500,< 500,< 500,–,–,–,CCCN(CCC)C(=O)c1cc(-c2ccnc3[nH]ccc23)c[nH]1 [compound 309]
> 4000,> 5000,> 5000,–,–,–,NC(=O)c1ccccc1-c1ccnc2[nH]ccc12 [compound 380]
500 to 5000,< 500,< 500,–,–,–,CCN(CCO)C(=O)c1cc(-c2c(Cl)cnc3[nH]ccc23)c[nH]1 [compound 345]
< 500,< 500,< 500,–,–,–,CC(C)CN(CC(C)C)C(=O)c1cc(-c2ccnc3[nH]ccc23)c[nH]1 [compound 311]
500 to 5000,500 to 5000,500 to 5000,–,–,–,Clc1ccccc1-c1ccnc2[nH]ccc12 [compound 216]
–,–,–,500 to 5000,500 to 5000,< 500,"CC(C)N(C)c1cccc(-c2ccnc3[nH]ccc23)n1 [compound 61, N-Isopropyl-N-methyl-6-(1H-pyrrolo[2,3-b]pyridin-4-yl)pyridin-2-amine]"
> 4000,500 to 5000,500 to 5000,–,–,–,C[C@@H](Nc1nc(-c2ccnc3[nH]ccc23)nc2ccccc12)C(=O)NCC(F)(F)F [compound 200]
–,–,–,< 500,< 500,500 to 5000,"c1ccc(COc2cccc(-c3ccnc4[nH]ccc34)c2)cc1 [compound 42, 4-(3-Benzyloxy-phenyl)-1H-pyrrolo[2,3-b]pyridine]"
< 500,< 500,< 500,–,–,–,CN(CCC#N)C(=O)c1cc(-c2ccnc3[nH]ccc23)c[nH]1 [compound 306]
–,–,–,< 500,< 500,< 500,"Cn1cc(-c2ccnc3[nH]ccc23)cn1 [compound 111, 4-(1-Methyl-1H-pyrazol-4-yl)-1H-pyrrolo[2,3-b]pyridine]"
–,–,–,< 500,< 500,< 500,"C1=C(c2ccnc3[nH]ccc23)CCC1 [compound 27, 4-Cyclopentenyl-1H-pyrrolo[2,3b]pyridine]"
> 4000,> 5000,> 5000,–,–,–,Cc1cccc(C)c1-c1ccnc2[nH]ccc12 [compound 217]
